Biological target: Proto-oncogene tyrosine-protein kinase Src (Homo sapiens, UniProt P12931)
Sequence (P12931 2-536 limits assumed): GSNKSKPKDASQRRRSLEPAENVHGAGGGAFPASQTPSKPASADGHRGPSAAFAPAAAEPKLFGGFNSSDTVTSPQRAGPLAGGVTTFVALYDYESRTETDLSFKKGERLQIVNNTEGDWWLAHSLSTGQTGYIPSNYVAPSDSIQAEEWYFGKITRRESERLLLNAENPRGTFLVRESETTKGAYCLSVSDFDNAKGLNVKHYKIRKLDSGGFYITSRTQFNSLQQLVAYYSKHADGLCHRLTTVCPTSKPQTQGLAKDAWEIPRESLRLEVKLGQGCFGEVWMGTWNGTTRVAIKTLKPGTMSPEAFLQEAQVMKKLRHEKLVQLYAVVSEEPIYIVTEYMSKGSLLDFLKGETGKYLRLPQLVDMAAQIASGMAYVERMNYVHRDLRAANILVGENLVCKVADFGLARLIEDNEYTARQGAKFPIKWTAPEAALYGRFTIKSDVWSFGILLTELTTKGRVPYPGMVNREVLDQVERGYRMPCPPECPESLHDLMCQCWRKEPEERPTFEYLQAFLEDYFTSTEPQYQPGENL

- IC50: 4 nM
SMILES: Cc1ccc(NC(=O)c2ccc(CN3CCN(C)CC3)cc2)cc1C#Cc1nn(C(C)C)c2ncnc(N)c12

Reference: ChEMBL document CHEMBL5726853, “3-acetylenyl-pyrazole-pyrimidine derivative, and preparation method therefor and uses thereof” (2019)
